Values of other authors in patent US20030211945A1, “Natural herbicide compositions” (priority 2002, published 2003).
Where two headings read alike, the source gives them in different places.

Test system: selected weeds

SMILES: CC(=O)O [acetic acid]
- weed control (concentrations of acetic acid below about 5%): variable results
- weed control (high concentrations of acetic acid): control selected weeds
